In PubChem BioAssay (NCI):
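Compound exposure: 48 hours, 5 concentrations, 96-well plates. GI50 is the concentration that inhibits growth by half. TGI denotes the concentration required for complete inhibition of growth.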

Experiments:
Assay in all cases: DTP human tumour cell line panel, 48 h
[1] = system: 786-0 renal
[2] = system: A498 renal
[3] = system: A549 NSCLC
[4] = system: ACHN renal
[5] = system: BT-549 breast
[6] = system: CAKI-1 renal
[7] = system: CCRF-CEM leukemia
[8] = system: COLO 205 colon
[9] = system: DU-145 prostate
[10] = system: EKVX NSCLC
[11] = system: HCC-2998 colon
[12] = system: HCT-116 colon
[13] = system: HCT-15 colon
[14] = system: HL-60(TB) leukemia
[15] = system: HOP-62 NSCLC
[16] = system: HOP-92 NSCLC
[17] = system: HS 578T breast
[18] = system: HT29 colon
[19] = system: IGROV1 ovarian
[20] = system: K-562 leukemia
[21] = system: KM12 colon
[22] = system: LOX IMVI melanoma
[23] = system: M14 melanoma
[24] = system: MALME-3M melanoma
[25] = system: MCF7 breast
[26] = system: MDA-MB-231 breast
[27] = system: MDA-MB-435
[28] = system: MOLT-4 leukemia
[29] = system: NCI-H226 lung
[30] = system: NCI-H23 lung
[31] = system: NCI-H460 lung
[32] = system: NCI-H522 lung
[33] = system: NCI/ADR-RES ovarian
[34] = system: OVCAR-3 ovarian
[35] = system: OVCAR-4 ovarian
[36] = system: OVCAR-5 ovarian
[37] = system: OVCAR-8 ovarian
[38] = system: PC-3 prostate
[39] = system: RPMI-8226 leukemia
[40] = system: RXF 393 renal
[41] = system: SF-268 CNS
[42] = system: SF-295 CNS
[43] = system: SF-539 CNS
[44] = system: SK-MEL-2 melanoma
[45] = system: SK-MEL-28 melanoma
[46] = system: SK-MEL-5 melanoma
[47] = system: SK-OV-3 ovarian
[48] = system: SN12C renal
[49] = system: SNB-19 CNS
[50] = system: SNB-75 CNS
[51] = system: SR leukemia
[52] = system: SW-620 colon
[53] = system: T-47D breast
[54] = system: TK-10 renal
[55] = system: U251 CNS
[56] = system: UACC-62 melanoma
[57] = system: UO-31 renal

Cc1ccsc1C(NC(=O)c1ccccc1)c1cc(Cl)c2cccnc2c1O (stereo not drawn)
GI50 [1]: 1190 nM
TGI [1]: 11400 nM
GI50 [2]: 936 nM
TGI [2]: 7290 nM
GI50 [3]: 764 nM
TGI [3]: 13600 nM
GI50 [4]: 450 nM
TGI [4]: 11200 nM
GI50 [5]: 2040 nM
TGI [5]: 21300 nM
GI50 [6]: 495 nM
TGI [6]: 14900 nM
GI50 [7]: 480 nM
TGI [7]: 39000 nM
GI50 [8]: 318 nM
TGI [8]: 10600 nM
GI50 [9]: 869 nM
TGI [9]: 14200 nM
GI50 [10]: 371 nM
TGI [10]: 10900 nM
GI50 [11]: 775 nM
TGI [11]: 16200 nM
GI50 [12]: 431 nM
TGI [12]: 13100 nM
GI50 [13]: 266 nM
TGI [13]: 16600 nM
GI50 [14]: 808 nM
TGI [14]: 5070 nM
GI50 [15]: 471 nM
TGI [15]: 5680 nM
GI50 [16]: 442 nM
TGI [16]: 7450 nM
GI50 [17]: 379 nM
TGI [17]: 19700 nM
GI50 [18]: 548 nM
TGI [18]: 20700 nM
GI50 [19]: 550 nM
TGI [19]: 4770 nM
GI50 [20]: 381 nM
TGI [20]: > 100000 nM
GI50 [21]: 493 nM
TGI [21]: 16000 nM
GI50 [22]: 504 nM
TGI [22]: 2320 nM
GI50 [23]: 892 nM
TGI [23]: 9430 nM
GI50 [24]: 1100 nM
TGI [24]: 13900 nM
GI50 [25]: 379 nM
TGI [25]: 16200 nM
GI50 [26]: 675 nM
TGI [26]: 18700 nM
GI50 [27]: 505 nM
TGI [27]: 17200 nM
GI50 [28]: 622 nM
TGI [28]: 34600 nM
GI50 [29]: 1400 nM
TGI [29]: 7350 nM
GI50 [30]: 650 nM
TGI [30]: 17500 nM
GI50 [31]: 341 nM
TGI [31]: 2030 nM
GI50 [32]: 271 nM
TGI [32]: 2110 nM
GI50 [33]: 284 nM
TGI [33]: 7180 nM
GI50 [34]: 354 nM
TGI [34]: 12100 nM
GI50 [35]: 479 nM
TGI [35]: 12800 nM
GI50 [36]: 2670 nM
TGI [36]: 42000 nM
GI50 [37]: 405 nM
TGI [37]: 24000 nM
GI50 [38]: 450 nM
TGI [38]: 16600 nM
GI50 [39]: 475 nM
TGI [39]: 16300 nM
GI50 [40]: 1770 nM
TGI [40]: 6080 nM
GI50 [41]: 600 nM
TGI [41]: 12100 nM
GI50 [42]: 333 nM
TGI [42]: 12200 nM
GI50 [43]: 479 nM
TGI [43]: 10400 nM
GI50 [44]: 609 nM
TGI [44]: 8750 nM
GI50 [45]: 688 nM
TGI [45]: 18900 nM
GI50 [46]: 583 nM
TGI [46]: 5140 nM
GI50 [47]: 617 nM
TGI [47]: 7960 nM
GI50 [48]: 971 nM
TGI [48]: 14700 nM
GI50 [49]: 394 nM
TGI [49]: 15700 nM
GI50 [50]: 320 nM
TGI [50]: 14900 nM
GI50 [51]: 398 nM
TGI [51]: 12300 nM
GI50 [52]: 400 nM
TGI [52]: 15000 nM
GI50 [53]: 426 nM
TGI [53]: 7300 nM
GI50 [54]: 579 nM
TGI [54]: 12600 nM
GI50 [55]: 318 nM
TGI [55]: 10400 nM
GI50 [56]: 339 nM
TGI [56]: 5220 nM
GI50 [57]: 334 nM
TGI [57]: 2510 nM

COc1cccc(N2CC(O)=C(c3nc4ccccc4s3)C2=N)c1
GI50 [1]: 363 nM
TGI [1]: 37100 nM
GI50 [2]: 330 nM
TGI [2]: 20000 nM
GI50 [3]: 656 nM
TGI [3]: > 56600 nM
GI50 [4]: 307 nM
TGI [4]: > 60200 nM
GI50 [5]: 726 nM
TGI [5]: > 100000 nM
GI50 [6]: 110 nM
TGI [6]: > 100000 nM
GI50 [7]: 243 nM
TGI [7]: > 100000 nM
GI50 [8]: 472 nM
TGI [8]: > 100000 nM
GI50 [9]: 1750 nM
TGI [9]: > 100000 nM
GI50 [10]: 9240 nM
TGI [10]: > 100000 nM
GI50 [11]: 230 nM
TGI [11]: 3570 nM
GI50 [12]: 350 nM
TGI [12]: > 47200 nM
GI50 [13]: 90 nM
TGI [13]: 31200 nM
GI50 [14]: 260 nM
TGI [14]: > 100000 nM
GI50 [15]: 560 nM
TGI [15]: 23400 nM
GI50 [16]: 3990 nM
TGI [16]: > 57200 nM
GI50 [17]: 470 nM
TGI [17]: > 44700 nM
GI50 [18]: 252 nM
TGI [18]: > 39300 nM
GI50 [19]: 277 nM
TGI [19]: > 75600 nM
GI50 [20]: < 20.4 nM
TGI [20]: > 100000 nM
GI50 [21]: 234 nM
TGI [21]: > 100000 nM
GI50 [22]: 459 nM
TGI [22]: > 100000 nM
GI50 [23]: 350 nM
TGI [23]: 48800 nM
GI50 [24]: 266 nM
TGI [24]: > 100000 nM
GI50 [25]: 289 nM
TGI [25]: > 100000 nM
GI50 [26]: 359 nM
TGI [26]: 3420 nM
GI50 [27]: 47.8 nM
TGI [27]: 362 nM
GI50 [28]: 166 nM
TGI [28]: > 100000 nM
GI50 [29]: 7210 nM
TGI [29]: > 100000 nM
GI50 [30]: 652 nM
TGI [30]: > 25200 nM
GI50 [31]: 240 nM
TGI [31]: > 100000 nM
GI50 [32]: 58.8 nM
GI50 [33]: 286 nM
TGI [33]: > 23200 nM
GI50 [34]: 269 nM
TGI [34]: 820 nM
GI50 [35]: 6190 nM
TGI [35]: > 100000 nM
TGI [36]: > 95000 nM
GI50 [37]: 838 nM
TGI [37]: 65900 nM
GI50 [38]: 320 nM
TGI [38]: > 100000 nM
TGI [39]: > 100000 nM
GI50 [40]: 488 nM
TGI [40]: 45100 nM
GI50 [41]: 1510 nM
TGI [41]: > 94500 nM
GI50 [42]: 74.4 nM
TGI [42]: 6090 nM
GI50 [43]: 451 nM
TGI [43]: 26600 nM
GI50 [44]: 7140 nM
TGI [44]: > 100000 nM
GI50 [45]: 468 nM
TGI [45]: > 65000 nM
GI50 [46]: 211 nM
TGI [46]: 23000 nM
GI50 [47]: 702 nM
TGI [47]: 33500 nM
GI50 [48]: 379 nM
TGI [48]: 5630 nM
GI50 [49]: 702 nM
TGI [49]: > 100000 nM
TGI [50]: 1980 nM
TGI [51]: > 100000 nM
GI50 [52]: 341 nM
TGI [52]: > 100000 nM
GI50 [53]: 46500 nM
TGI [53]: > 100000 nM
GI50 [54]: 3240 nM
TGI [54]: 70200 nM
GI50 [55]: 420 nM
TGI [55]: 19500 nM
GI50 [56]: 239 nM
TGI [56]: 2610 nM
GI50 [57]: 717 nM
TGI [57]: > 70300 nM
